# Measured values as given in patent publication US11008301B2, “Piperidinone formyl peptide 2 receptor agonists” (BRISTOL-MYERS SQUIBB COMPANY, priority 2017, dated 2021).
# Values joined by “and” are separate entries in the source; they are usually repeats but may differ in a detail not shown here. Equal entries are not always repeated.
# Molecular target: human FPR2 (Homo sapiens (Human), UniProt P25090)
# Test: FPR2 cyclic adenosine monophosphate (cAMP) assay
# Type: cell-based
# Details: CHO cells overexpressing human FPR2; cAMP assay; read-out: hFPR2 agonist activity EC50 (hFPR2 Assay)
# Protocol: FPR2 and FPR1 Cyclic Adenosine Monophosphate (cAMP) Assays. A mixture of forskolin (5 μM final for FPR2 or 10 μM final for FPR1) and IBMX (200 μM final) were added to 384-well Proxiplates (Perkin-Elmer) pre-dotted with test compounds in DMSO (1% final) at final concentrations in the range of 1.7 nM to 100 μM. Chinese Hamster Ovary cells (CHO) overexpressing human FPR1 or human FPR2 receptors were cultured in F-12 (Ham's) medium supplemented with 10% qualified FBS, 250 μg/ml zeocin and 300 μg/ml hygromycin (Life Technologies). Reactions were initiated by adding 2,000 human FPR2 cells per well or 4,000 human FPR1 cells per well in Dulbecco's PBS (with calcium and magnesium) (Life Technologies) supplemented with 0.1% BSA (Perkin-Elmer). The reaction mixtures were incubated for 30 min at room temperature. The level of intracellular cAMP was determined using the HTRF HiRange cAMP assay reagent kit (Cisbio) according to manufacturer's instruction. Solutions of cryptate conjugated anti-cAMP and d2 flurorophore-labelled cAMP were made in a supplied lysis buffer separately. Upon completion of the reaction, the cells were lysed with equal volume of the d2-cAMP solution and anti-cAMP solution. After a 1-h room temperature incubation, time-resolved fluorescence intensity was measured using the Envision (Perkin-Elmer) at 400 nm excitation and dual emission at 590 nm and 665 nm. A calibration curve was constructed with an external cAMP standard at concentrations ranging from 1 μM to 0.1 pM by plotting the fluorescent intensity ratio from 665 nm emission to the intensity from the 590 nm emission against cAMP concentrations. The potency and activity of a compound to inhibit cAMP production was then determined by fitting to a 4-parametric logistic equation from a plot of cAMP level versus compound concentrations.
# Chain of human FPR2 (P25090 whole entry): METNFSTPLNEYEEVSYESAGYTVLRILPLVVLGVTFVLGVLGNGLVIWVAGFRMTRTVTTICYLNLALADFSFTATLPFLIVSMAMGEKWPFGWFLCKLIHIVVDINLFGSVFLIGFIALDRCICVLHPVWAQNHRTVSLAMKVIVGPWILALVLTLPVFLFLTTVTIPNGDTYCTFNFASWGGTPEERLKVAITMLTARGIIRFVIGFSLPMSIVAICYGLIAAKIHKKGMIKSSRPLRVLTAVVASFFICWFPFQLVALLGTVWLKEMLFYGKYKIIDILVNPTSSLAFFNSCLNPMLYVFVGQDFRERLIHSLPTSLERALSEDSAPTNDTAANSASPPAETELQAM
row,EC50,Compound
1,≤ 10 nM,"O=C(Nc1ccc(C(F)(F)F)cc1)N[C@@H]1CCCN(c2ccc(N3CC[C@@H](O)C3)cc2)C1=O [Example 1, 1-(1-(4-((R)-3-Hydroxypyrrolidin-1-yl)phenyl)-2-oxopiperidin-3-yl)-3-(4-(trifluoromethyl)phenyl)urea]"
2,10 to 100 nM,O=C(Nc1ccc(C(F)(F)F)cc1)N[C@@H]1CCCN(c2ccc(N3CCCC3=O)cc2)C1=O [Example 2]
3,10 to 100 nM,O=C(Nc1ccc(C(F)(F)F)cc1)N[C@@H]1CCCN(c2ccc(N3CC[C@H](O)C3)cc2)C1=O [Example 3]
4,≤ 10 nM,O=C(Nc1ccc(C(F)(F)F)cc1)N[C@@H]1CCCN(c2ccc(N3C[C@H]4CC[C@@H](C3)O4)cc2)C1=O [Example 5]
5,10 to 100 nM,O=C(Nc1ccc(Cl)nc1)N[C@@H]1CCCN(c2ccc(N3CC[C@@H](O)C3)cc2)C1=O [Example 6]
6,10 to 100 nM,C[C@@H]1COCCN1c1ccc(N2CCC[C@@H](NC(=O)Nc3ccc(C(F)(F)F)nc3)C2=O)cc1 [Example 7]
7,100 to 1000 nM,C[C@H]1COCCN1c1ccc(N2CCC[C@@H](NC(=O)Nc3ccc(C(F)(F)F)nc3)C2=O)cc1 [Example 8]
8,10 to 100 nM,O=C(Nc1ccc(C(F)(F)F)cc1)N[C@@H]1CCCN(c2ccc(N3CC4(COC4)C3)cc2)C1=O [Example 10]
9,≤ 10 nM,COCC1COCCN1c1ccc(N2CCC[C@@H](NC(=O)Nc3ccc(C(F)(F)F)cc3)C2=O)cc1 (some centres unmarked) [Example 13]
10,10 to 100 nM,COCC1CCCCN1c1ccc(N2CCC[C@@H](NC(=O)Nc3ccc(C(F)(F)F)nc3)C2=O)cc1 (some centres unmarked) [Example 16]
11,≤ 10 nM,COCC1COCCN1c1ccc(N2CCC[C@@H](NC(=O)Nc3ccc(C(F)(F)F)cc3)C2=O)cc1 (some centres unmarked) [Example 21]
12,100 to 1000 nM,COCC1COCCN1c1ccc(N2CCC[C@@H](NC(=O)Nc3ccc(C(F)(F)F)nc3)C2=O)cc1 (some centres unmarked) [Example 22]
13,100 to 1000 nM,COC[C@@H]1CCCN1c1ccc(N2CCC[C@@H](NC(=O)Nc3ccc(C(F)(F)F)cn3)C2=O)cc1 [Example 24]
14,10 to 100 nM,COC[C@@H]1CCCN1c1ccc(N2CCC[C@@H](NC(=O)Nc3ccc(C(F)(F)F)nc3)C2=O)cc1 [Example 25]
15,10 to 100 nM,COC[C@@H]1CCCN1c1ccc(N2CCC[C@@H](NC(=O)Nc3ccc(C(F)(F)F)cc3)C2=O)cc1 [Example 27]
16,100 to 1000 nM,O=C(Nc1ccc(C(F)(F)F)cn1)N[C@@H]1CCCN(c2ccc(N3CC[C@@H](O)C3)cc2)C1=O [Example 28]
17,100 to 1000 nM,CC(=O)N1CCN(c2ccc(N3CCC[C@@H](NC(=O)Nc4ccc(C(F)(F)F)cc4)C3=O)cc2)CC1 [Example 29]
18,≤ 10 nM,COC1CCN(c2ccc(N3CCC[C@@H](NC(=O)Nc4ccc(C(F)(F)F)cc4)C3=O)cc2)CC1 [Example 30]
19,10 to 100 nM,O=C(Nc1ccc(C(F)(F)F)cc1)N[C@@H]1CCCN(c2ccc(N3CCCC(O)C3)cc2)C1=O (some centres unmarked) [Example 31]
20,100 to 1000 nM,O=C(Nc1ccc(C(F)(F)F)cc1)N[C@H]1CCCN(c2ccc(N3CCCC(O)C3)cc2)C1=O (some centres unmarked) [Example 32]
21,10 to 100 nM,CC(C)N1CCN(c2ccc(N3CCC[C@@H](NC(=O)Nc4ccc(C(F)(F)F)cc4)C3=O)cc2)CC1 [Example 33]

row,EC50,Compound
1,≤ 10 nM,C[C@@H]1COCCN1c1ccc(N2CCC[C@@H](NC(=O)Nc3ccc(C(F)(F)F)cc3)C2=O)cc1 [Example 35]
2,10 to 100 nM,COc1ccc(NC(=O)N[C@@H]2CCCN(c3ccc(N4CCOC[C@H]4C)cc3)C2=O)cc1 [Example 36]
3,10 to 100 nM,C[C@H]1COCCN1c1ccc(N2CCC[C@@H](NC(=O)Nc3ccc(C(F)(F)F)cc3)C2=O)cc1 [Example 37]
4,≤ 10 nM,CC1CCCN(c2ccc(N3CCC[C@@H](NC(=O)Nc4ccc(C(F)(F)F)cc4)C3=O)cc2)C1 (some centres unmarked) [Example 38]
5,≤ 10 nM,CC(C)[C@@H]1COCCN1c1ccc(N2CCC[C@@H](NC(=O)Nc3ccc(C(F)(F)F)cc3)C2=O)cc1 [Example 39]
6,10 to 100 nM,CC1(C)CCN(c2ccc(N3CCC[C@@H](NC(=O)Nc4ccc(C(F)(F)F)cc4)C3=O)cc2)CC1 [Example 40]
7,10 to 100 nM,CC1CCN(c2ccc(N3CCC[C@@H](NC(=O)Nc4ccc(C(F)(F)F)cc4)C3=O)cc2)CC1 [Example 41]
8,10 to 100 nM,CCN1CCN(c2ccc(N3CCC[C@@H](NC(=O)Nc4ccc(C(F)(F)F)cc4)C3=O)cc2)CC1 [Example 42]
9,10 to 100 nM,C[C@@H]1CN(c2ccc(N3CCC[C@@H](NC(=O)Nc4ccc(C(F)(F)F)cc4)C3=O)cc2)C[C@H](C)O1 [Example 43]
10,10 to 100 nM,CN1CCN(c2ccc(N3CCC[C@@H](NC(=O)Nc4ccc(C(F)(F)F)cc4)C3=O)cc2)CC1 [Example 44]
11,≤ 10 nM,O=C(Nc1ccc(C(F)(F)F)cc1)N[C@@H]1CCCN(c2ccc(N3CCOCC3)cc2)C1=O [Example 46]
12,100 to 1000 nM,O=C(Nc1ccc(C(F)(F)F)nc1)N[C@@H]1CCCN(c2ccc(N3C[C@H]4CC[C@@H](C3)O4)cc2)C1=O [Example 47]
13,100 to 1000 nM,C[C@@H]1COCCN1c1ccc(N2CCC[C@@H](NC(=O)Nc3ccc(C(F)(F)F)cn3)C2=O)cc1 [Example 48]
14,100 to 1000 nM,O=C(Nc1ccc(C(F)(F)F)cn1)N[C@@H]1CCCN(c2ccc(N3CCCCC3=O)cc2)C1=O [Example 49]
15,100 to 1000 nM,O=C(Nc1ccc(C(F)(F)F)cn1)N[C@@H]1CCCN(c2ccc(N3CCCCC3=O)cc2F)C1=O [Example 51]
16,10 to 100 nM,O=C(Nc1ccc(C(F)(F)F)cc1)N[C@@H]1CCCN(c2ccc(N3CCCCC3=O)cc2F)C1=O [Example 52]
17,10 to 100 nM,O=C(Nc1ccc(C(F)(F)F)cc1)N[C@@H]1CCCN(c2ccc(N3CCOCC3)cc2F)C1=O [Example 53]
18,10 to 100 nM,O=C(Nc1ccc(C(F)(F)F)cc1)N[C@@H]1CCCN(c2ccc(N3CC[C@@H](O)C3)nc2)C1=O [Example 55]
19,10 to 100 nM,O=C(Nc1ccc(C(F)(F)F)cc1)N[C@@H]1CCCN(c2ccc(N3CCCC(F)C3)nc2)C1=O (some centres unmarked) [Example 57]
20,10 to 100 nM,COC1CCN(c2ccc(N3CCC[C@@H](NC(=O)Nc4ccc(C(F)(F)F)cc4)C3=O)cn2)CC1 [Example 58]
21,10 to 100 nM,CC1CCN(c2ccc(N3CCC[C@@H](NC(=O)Nc4ccc(C(F)(F)F)cc4)C3=O)cn2)CC1 [Example 59]

row,EC50,Compound
1,10 to 100 nM,O=C(Nc1ccc(C(F)(F)F)cc1)N[C@@H]1CCCN(c2ccc(N3CCCC(O)C3)nc2)C1=O (some centres unmarked) [Example 60]
2,10 to 100 nM,O=C(Nc1ccc(C(F)(F)F)cc1)N[C@@H]1CCCN(c2ccc(N3CCN(CCO)CC3)nc2)C1=O [Example 61]
3,100 to 1000 nM,O=C(Nc1ccc(C(F)(F)F)nc1)N[C@@H]1CCCN(c2ccc(N3[C@@H]4CC[C@H]3COC4)nc2)C1=O [Example 62]
4,100 to 1000 nM,COC[C@@H]1CCCN1c1ccc(N2CCC[C@@H](NC(=O)Nc3ccc(C(F)(F)F)cn3)C2=O)cn1 [Example 63]
5,100 to 1000 nM,O=C(Nc1ccc(C(F)(F)F)cc1)N[C@@H]1CCCN(c2ccc(N3CCCC(CO)C3)nc2)C1=O (some centres unmarked) [Example 64]
6,≤ 10 nM,COCC1CCCN1c1ccc(N2CCC[C@@H](NC(=O)Nc3ccc(C(F)(F)F)cc3)C2=O)cc1 (some centres unmarked) [Example 66]
7,≤ 10 nM and 10 to 100 nM,O=C(Nc1cnc(C(F)(F)F)cn1)N[C@@H]1CCCN(c2ccc(N3CCC(F)(F)C3)cc2)C1=O [Example 67]
8,≤ 10 nM,O=C(Nc1ccc(C(F)(F)F)cc1)N[C@@H]1CCCN(c2ccc(N3CCC(F)(F)C3)cc2)C1=O [Example 68]
9,≤ 10 nM,COCC1CCCCN1c1ccc(N2CCC[C@@H](NC(=O)Nc3cnc(C(F)(F)F)cn3)C2=O)c(F)c1 (some centres unmarked) [Example 71]
10,≤ 10 nM,O=C(Nc1ccc(C(F)(F)F)cc1)N[C@@H]1CCCN(c2ccc(N3CCCC(C(F)(F)F)C3)cc2)C1=O (some centres unmarked) [Example 72]
11,≤ 10 nM,O=C(Nc1ccc(C(F)(F)F)cc1)N[C@@H]1CCCN(c2ccc(N3CCC(CO)C3)cc2)C1=O (some centres unmarked) [Example 73]
12,≤ 10 nM,O=C(Nc1ccc(C(F)(F)F)cc1)N[C@@H]1CCCN(c2ccc(N3CC(O)C(F)C3)cc2)C1=O (some centres unmarked) [Example 74]
13,≤ 10 nM,CN(C)C1CCN(c2ccc(N3CCC[C@@H](NC(=O)Nc4ccc(Cl)cc4)C3=O)c(F)c2F)C1 (some centres unmarked) [Example 75]
14,≤ 10 nM,COC1CCN(c2ccc(N3CCC[C@@H](NC(=O)Nc4ccc(Cl)cc4)C3=O)cc2)C1 (some centres unmarked) [Example 76]
15,≤ 10 nM,O=C(Nc1ccc(Cl)cc1)N[C@@H]1CCCN(c2ccc(N3CCCC(CO)C3)cc2)C1=O (some centres unmarked) [Example 78]
16,≤ 10 nM,CN(C)C1CN(c2ccc(N3CCC[C@@H](NC(=O)Nc4ccc(C(F)(F)F)cc4)C3=O)cc2)CC1O (some centres unmarked) [Example 79]
17,≤ 10 nM,O=C(Nc1ccc(Cl)cc1F)N[C@@H]1CCCN(c2ccc(N3CCCCC3=O)c(F)c2F)C1=O [Example 80]
18,≤ 10 nM,O=C(Nc1ccc(Cl)cc1F)N[C@@H]1CCCN(c2ccc(N3CC[C@@H](F)C3)cc2)C1=O [Example 82]
19,≤ 10 nM,CN(C)C1CN(c2ccc(N3CCC[C@@H](NC(=O)Nc4ccc(C(F)(F)F)cc4)C3=O)cc2)CC1F (some centres unmarked) [Example 84]
20,≤ 10 nM,CN(CC(F)(F)F)C1CCN(c2ccc(N3CCC[C@@H](NC(=O)Nc4ccc(Cl)cc4)C3=O)c(F)c2F)C1 (some centres unmarked) [Example 85]
